Active and inactive are the calls of the source. The rule behind the calls is not given here.
Legend:
HEK293 [1] = assay: Cytotoxicity against HEK293 cells assessed as inhibition of cell proliferation at 2 mM after 48 hrs by MTT assay; type: functional; details: Homo sapiens, HEK293, 48 h; read-out: GI
HepG2 [2] = assay: Cytotoxicity against human HepG2 cells assessed as inhibition of cell proliferation at 2 mM after 48 hrs by MTT assay; type: functional; details: HepG2, 48 h, read-out: GI
HEK293 [3] = assay: Cytotoxicity against HEK293 cells assessed as inhibition of cell proliferation at 500 uM after 48 hrs by MTT assay; type: functional; details: Homo sapiens, HEK293, 48 h; read-out: GI
HepG2 [4] = assay: Cytotoxicity against human HepG2 cells assessed as inhibition of cell proliferation at 500 uM after 48 hrs by MTT assay; type: functional; details: HepG2, 48 h, read-out: GI
[5] = target: T1, Acetylcholinesterase 1 (Caenorhabditis elegans) (UniProt P38433); assay: Inhibition of AChE in Caenorhabditis elegans assessed as increase in acetylcholine after 48 hrs by Amplex red assay
T1 sequence (whole entry): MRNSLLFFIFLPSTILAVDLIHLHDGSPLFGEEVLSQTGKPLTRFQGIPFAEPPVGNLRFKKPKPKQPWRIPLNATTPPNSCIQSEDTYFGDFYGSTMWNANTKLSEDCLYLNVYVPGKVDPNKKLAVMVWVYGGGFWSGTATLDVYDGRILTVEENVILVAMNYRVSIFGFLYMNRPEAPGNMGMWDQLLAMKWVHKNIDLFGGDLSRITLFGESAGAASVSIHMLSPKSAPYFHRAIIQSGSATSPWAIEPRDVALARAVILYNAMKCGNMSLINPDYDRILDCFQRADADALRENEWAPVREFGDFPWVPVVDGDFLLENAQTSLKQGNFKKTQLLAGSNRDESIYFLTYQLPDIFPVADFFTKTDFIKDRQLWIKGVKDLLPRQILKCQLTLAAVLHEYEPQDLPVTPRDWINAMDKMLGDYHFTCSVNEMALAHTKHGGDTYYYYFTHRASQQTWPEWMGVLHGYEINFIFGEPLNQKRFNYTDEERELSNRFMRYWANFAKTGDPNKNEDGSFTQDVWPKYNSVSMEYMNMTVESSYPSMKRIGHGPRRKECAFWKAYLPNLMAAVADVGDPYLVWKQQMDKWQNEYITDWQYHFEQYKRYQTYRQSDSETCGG

[6] = target: Alpha-synuclein (Homo sapiens) (UniProt P37840); assay: Inhibition of YFP-tagged human alpha-synuclein aggregation expressed in transgenic Caenorhabditis elegans model NL5901 incubated for 48 hrs by fluorescent microscopy relative to untreated control
Caenorhabditis elegans [7] = assay: […] content in Caenorhabditis elegans N2 assessed as reduction in response time after 48 hrs nonanol repulsion assay; type: functional
Caenorhabditis elegans [8] = assay: Antioxidant activity in Caenorhabditis elegans N2 assessed as reduction in ROS generation H2DCFDA dye based fluorescent assay; type: functional
Caenorhabditis elegans [9] = assay: Increase in DAF16 nuclear localization in GFP expressing Caenorhabditis elegans TJ356 after 48 hrs by fluorescence microscopy; type: functional, organism-based
Caenorhabditis elegans [10] = assay: […] content in Caenorhabditis elegans NL5901 assessed as reduction in response time after 48 hrs nonanol repulsion assay; type: functional

## Nc1c2c(nc3ccccc13)CCCC2 [TACRINE]
HEK293 [1]
  inhibition of growth at 2000 µM: 83%
HepG2 [2]
  inhibition of growth at 2000 µM: 86.9%
HEK293 [3]
  inhibition of growth at 500 µM: 72.3%
HepG2 [4]
  inhibition of growth at 500 µM: 83.4%

## CCC(C)c1cc(C2C3=C(CC(C)(C)CC3=O)Oc3nc4c(c(N)c32)CCCC4)cc2cc(-c3cc(OC)c(OC)c(OC)c3)c(=O)oc12 (racemic)
[5]
  inhibition: inactive
[6]
  fold change (FC): 1.35

## CCC(C)c1cc(C2C3=C(CC(C)(C)CC3=O)Oc3nc4c(c(N)c32)CCCC4)cc2cc(-c3ccc(OC)cc3)c(=O)oc12 (racemic)
[5]
  fold change (FC): 1.51
[6]
  fold change (FC): 2

## COc1ccc(-c2cc3cc(C4C5=C(CC(C)(C)CC5=O)Oc5nc6c(c(N)c54)CCCC6)cc(C(C)C)c3oc2=O)cc1 (racemic)
[5]
  fold change (FC): 1.88

## CCC(C)c1cc(C2C3=C(CCCC3=O)Oc3nc4c(c(N)c32)CCCC4)cc2cc(-c3cc(OC)c(OC)c(OC)c3)c(=O)oc12 (racemic)
HEK293 [1]
  inhibition of growth at 2000 µM: 56.9%
[5]
  fold change (FC): 1.15
Caenorhabditis elegans [7]
  fold change (FC): 1.8
HepG2 [2]
  inhibition of growth at 2000 µM: 16.5%
HEK293 [3]
  inhibition of growth at 500 µM: 6.5%
[6]
  fold change (FC): 2.1
Caenorhabditis elegans [8]
  fold change (FC): 1.84
HepG2 [4]
  inhibition of growth at 500 µM: 8.66%
Caenorhabditis elegans [9]
  Activity: inactive
Caenorhabditis elegans [10]
  fold change (FC): 1.9

## COc1ccc(-c2cc3cc(C4C5=C(CC(C)(C)CC5=O)Oc5nc6c(c(N)c54)CCC6)cc(C(C)C)c3oc2=O)cc1OC (racemic)
[5]
  fold change (FC): 1.19
[6]
  inhibition: inactive

## CCC(C)c1cc(C2C3=C(CCCC3=O)Oc3nc4c(c(N)c32)CCC4)cc2cc(-c3cc(OC)c(OC)c(OC)c3)c(=O)oc12 (racemic)
[5]
  fold change (FC): 1.14
[6]
  fold change (FC): 1.76

## COc1ccc(-c2cc3cc(C4C5=C(CC(C)(C)CC5=O)Oc5nc6c(c(N)c54)CCCC6)cc(C(C)C)c3oc2=O)cc1OC (racemic)
[5]
  fold change (FC): 1.16
[6]
  inhibition: inactive

## COc1ccc(-c2cc3cc(C4C5=C(CC(C)(C)CC5=O)Oc5nc6c(c(N)c54)CCC6)cc(C(C)C)c3oc2=O)cc1 (racemic)
[5]
  fold change (FC): 1.5
[6]
  inhibition: inactive
Caenorhabditis elegans [8]
  fold change (FC): 2.16

## COc1cc(-c2cc3cc(C4C5=C(CCCC5=O)Oc5nc6c(c(N)c54)CCCC6)cc(C(C)C)c3oc2=O)cc(OC)c1OC (racemic)
HEK293 [1]
  inhibition of growth at 2000 µM: 73.8%
[5]
  fold change (FC): 1.2
Caenorhabditis elegans [7]
  fold change (FC): 2.6
HepG2 [2]
  inhibition of growth at 2000 µM: 27.8%
HEK293 [3]
  inhibition of growth at 500 µM: 54%
[6]
  fold change (FC): 2.6
Caenorhabditis elegans [8]
  fold change (FC): 1.72
HepG2 [4]
  inhibition of growth at 500 µM: 26.1%
Caenorhabditis elegans [9]
  Activity: Active
Caenorhabditis elegans [10]
  fold change (FC): 1.75
